From US9770448B1, “Compositions and methods for treatment of Bowen's disease and related diseases” (priority 2016, dated 2017)

Tests used:
[1] = test system: Bowen's disease; settings: Example 10 patient history; cited from earlier work
[2] = test system: HPV+ laryngeal keratinocytes; assay: In vitro chloroquine-induced killing of laryngeal keratinocytes (HPV+); format: cell-based, human; settings: two days incubation, visual inspection for survival
Description: (§1) In addition to the foregoing examples, in vitro experimental data have been obtained which indicate that the compositions and methods of the present disclosure can be used in the treatment of recurrent respiratory papillomatosis (RRPRRP) disease, which is also known as laryngeal papillomatosis. RRP is caused by human papillomavirus (HPV), typically HPV6 and HPV11, and involves formation of generally nonmalignant tumors on the larynx or vocal chords, and can spread to the trachea, bronchi and lungs. HPV^+ and HPV^− laryngeal keratinocytes obtained from a recurrent respiratory papillomatosis patient were expanded on Mitomycin C-treated J2 3T3 feeder cell layers in E media with 10 uM Y27632 (ROCK inhibitor). These cells were then plated without feeder layers in 2.5 uM Y27632 and grown until they reached 90% confluency. At this point, fresh E media without Y27632 was added to the cells with increasing concentrations of chloroquine. Chloroquine concentrations used were 0 ug/ml, 2.5 ug/ml, 25 ug/ml, 250 ug/ml, 2.5 mg/ml and 25 mg/ml. Chloroquine powder (Sigma) was resuspended at 25 mg/ml in E media and was brought to pH 7 with 1N NaOH. Working dilutions were made with full E media. Cells were incubated for two days in chloroquine and then visually inspected for survival, as noted by (a) the presence of cells in the wells and (b) morphology of the cells.

[3] = test system: HPV- laryngeal keratinocytes; assay: In vitro chloroquine-induced killing of laryngeal keratinocytes (HPV-); format: cell-based, human; settings: two days incubation, visual inspection for survival
Description: as §1

Row | SMILES | Outcome of earlier over the counter drug as stated by patient [1] | Chloroquine concentration that cells survived [2] | Chloroquine concentrations at which cells were killed [2] | Chloroquine concentration that cells survived [3] | Chloroquine concentrations at which cells were killed [3]
1 | O=C(O)C(Cl)(Cl)Cl [TCA, trichloroacetic acid] | made the Bowen's disease Lesion worse |  |  |  | 
2 | CCN(CC)CCCC(C)Nc1ccnc2cc(Cl)ccc12 (racemic) [chloroquine, (RS)—N′-(7-chloroquinolin-4-yl)-N,N-diethyl-pentane-1,4-diamine] |  | 25 µg/mL | ≥ 250 µg/mL | 25 µg/mL | ≥ 250 µg/mL
